This is an account of results in patent US5250283A, “Organic contrast agent analog and method of making same” (priority 1992, dated 1993).

This data set in a line: Thin layer chromatography of bile (metabolism) in rats. Conditions: rat bile, i.v. Type of data set: in vivo. As for the experimental part:
Lesser concentrations were found in the other tissues. Excretion of the two compounds were found only in bile with no compound detected in urine. In bile, TFA-IOP reached a maximum concentration of […] with the recovery of 40% of the injection dose during a 90 minute time period (see FIG. 6).

SMILES strings stand for the structures. Where a name gives a salt, the structure may show the parent alone.

With `CCC(Cc1c(I)cc(I)c(NC(=O)C(F)(F)F)c1I)C(=O)O` (centres unmarked) [TFA-IOP, N-trifluoroacetyl-iopanoic acid], the “metabolism, TLC of bile” value is given as “a vast majority of the injected TFA-IOP was metabolized to a single metabolite”. Further, the “nonmetabolized compound in bile” value (TLC) is “No nonmetabolized compound was found”.
